Tested on: Formosean subterranean termites (Coptotermes formosanus)
Experiment: Subterranean termite activity on treated wooden frame structures (sheds), field test
Format: in vivo
From the text: Twelve wooden frame structures (4 ft by 3 ft by 4 ft high, four to receive treatment with a bifenthrin solution, four to receive a commercial borate standard treatment and four to be used as untreated controls) were built on one inch thick concrete pads in an area of high subterranean termite pressure, Formosean subterranean termites (Coptotermes formosanus). The structures were constructed using pressure treated sill plates, untreated southern yellow pine studs and untreated plywood walls. A two inch diameter polyethylene pipe was installed in a hole in the center of each concrete pad to simulate a plumbing drain installation, leaving a small gap between the pad and the pipe. A piece of wood was inserted in the gap to encourage local termite pressure. […] Termite activity surrounding each structure was monitored by installing commercially available in-ground termite monitors (FIRSTLINE® Defender kits available from FMC Corporation) about one foot from each outside face, a total of four monitors per structure. […] Termite activity was measured in each structure by visually inspecting the inside and outside walls and the area around the polyethylene pipe for termite damage and for construction of shelter tubes at for up to 18 months after treatment. […]

With `Cc1c(COC(=O)[C@@H]2[C@H](/C=C(\Cl)C(F)(F)F)C2(C)C)cccc1-c1ccccc1` (racemic) [Bifenthrin, 2-methylbiphenyl-3-ylmethyl (Z)-(1RS)-cis-3-(2-chloro-3,3,3-trifluoroprop-1-enyl)-2,2-dimethyl cyclopropanecarboxylate] the “Termite damage or damage to the wood piece inserted in the simulated plumbing drain hole” value (up to 18 months after treatment) was “None of the bifenthrin treated structures had any indication of termite damage or damage to the wood piece” and the “Damage to structures due to termite activity” value (visual inspection up to 18 months after treatment) was “very little or no damage due to termite activity”.
